Experimental findings from US9434687B2, “Detection of synthetic cannabinoids” (priority 2011, dated 2016) are described below.

The test system of assay [1] is antiserum raised to Immunogen I (Hapten A-BTG). In words: Competitive ELISA microtiter plate assay, antiserum raised to Immunogen I, conjugate Hapten A-HRP (Example 19). Type of assay: binding, sheep. The method, then: Aqueous solutions of the immunogens prepared in examples 5 and 13 were formulated with Freund's Complete Adjuvant (FCA) to form emulsions consisting of 2 mg/ml Immunogen I and 2 mg/ml of Immunogen II in 50% (v/v) FCA. Three sheep were immunised with each emulsion (1° immunisations), 0.25 ml being intramuscularly injected at four sites in the rump of each animal. Subsequent immunisations (boosts 2-8) contained 1 mg/ml Immunogen I and 1 mg/ml Immunogen II. All boosts were emulsified in 50% (v/v) Freund's Incomplete Adjuvant (FIA) and administered to the appropriate sheep in the same manner as the 1° immunisations, at monthly intervals. Blood sampling took place 7-14 days after each boost. Each sample was processed to produce antiserum, which was further purified by caprylic acid and ammonium sulphate precipitation to yield an immunoglobulin (Ig) fraction. The Ig fraction was evaluated by competitive ELISA microtiter plate assay, as described in example 19 below.
(a) The wells of an enhanced binding 96 well polystyrene microtiter plate were coated with the Ig fraction of the antiserum raised to Immunogen I (Hapten A-BTG—example 5) and diluted in 10 mM Tris, pH8.5 (125 μl/well). The appropriate antibody coating concentration was determined using standard ELISA checkerboard techniques. The plate was incubated for 2 hours at 37° C., washed 4 times over a 10-minute period with Tris buffered saline containing Tween 20 (TBST) and tapped dry. Standard solutions of JWH synthetic cannabinoids, metabolites and selected molecules were prepared in TBST and 50 μl of each was added to the appropriate wells. 75 μl of conjugate (Hapten A-HRP) diluted in Tris buffer containing EDTA, D-mannitol, sucrose, thimerosal and BSA, was added to each of the wells. The appropriate dilution of conjugate was also determined using standard ELISA checkerboard techniques. The plate was incubated at 25° C. for 1 hour. The excess unbound conjugate was removed by washing 6 times over a 10-minute period with TBST and tapped dry. 125 μl of tetramethylbenzedine (TMB) substrate solution was added to each well of the plate that was then incubated for 15-20 minutes in the dark at room temperature. The reaction was terminated by addition of 125 μl of 0.2M sulphuric acid to each well. The absorbance was then measured at 450 nm using a microtiter plate reader.
Employing each series of standards, calibration curves were generated and these were used to determine the specificity of the immunoassay for the JWH synthetic cannabinoids, metabolites and selected molecules. The results of this study are presented in Tables 1 to 3, cross-reactivity being calculated according to the following formula: % CR=IC50,JWH-018/IC50,CR×100
Where % CR is the percentage cross-reactivity, IC50, JWH-018 is the concentration of JWH-018 that causes 50% displacement of signal and IC50, CR is the concentration of JWH synthetic cannabinoid/metabolite/selected molecule that causes 50% displacement of signal.
(b) In a similar manner to that described in Example 19(a), the wells of a 96 well microtiter plate were coated with the Ig fraction of the antiserum raised to Immunogen I (Hapten A-BTG). Conjugate (Hapten A-HRP) was employed as a detection reagent.
Table 2: Data generated from a competitive microtiter plate assay for JWH synthetic cannabinoids and metabolites, employing antiserum raised to Immunogen I (Hapten A-BTG) and conjugate (Hapten A-HRP) as detection reagent.
(d) The resulting competitive ELISA for synthetic cannabinoids and metabolites was also employed to test for the 5-fluoropentyl derivative of JWH-018, (1-(5-fluoropentyl)indol-3yl (1-naphthyl) methanone (Table 4).

Assay [2] relates to IgG fraction of antiserum raised to Immunogen I. Type of assay: binding, sheep. Summed up: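 Plates were coated with the IgG fraction of sheep antiserum raised to Immunogen I and incubated with standards (JWH-018, 0-40 ng/ml) plus hapten-HRP conjugate for 1 h at 25° C. Detection used TMB, read at 450 nm. IC50 was taken from a 4-parameter fit as the concentration giving half the zero-standard OD.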

Where [3] appears, read: Table 2, CR based on 100% for JWH-018.
Setting [4] is: Table 2, detecting agent derived from Hapten-A, 40 ng/ml highest concentration tested.
Where [5] appears, read: Table 4, Immunogen I, relative to JWH-018.
[6] abbreviates: Antibody to Immunogen I, cross-reactants at 100 ng/ml, 1000 ng/ml, standard JWH-018.

Like-named read-outs stand apart in the source and are kept apart here.

One may read the IC50 as the point on the concentration scale where inhibition reaches its midpoint. With `CCCCCn1cc(C(=O)c2cccc3ccccc23)c2ccccc21` [JWH-018], the “binding to the antibody produced from Immunogen I (in words)” value (“binding to the antibody produced” below) in assay [1] is listed as “able to bind”. Moreover, the “% Cross-reactivity” value in assay [1] (setting [3]) and in assay [1] (setting [5]) was 100.00% throughout. Further, the IC50 in assay [1] (setting [4]) came to 2.71 ng/mL; in assay [1] (Table 4, Immunogen I), 2.30 ng/mL; in assay [2] (Table 7 standard curve, standard concentration which produces 50% B/B0), 2.016 ng/mL. In addition, the “% B/B0” value in assay [2] (setting [6]) is given as 5.19%; in assay [2] (JWH-018 0.625 ng/ml) it was 77%; in assay [2] (JWH-018 1.25 ng/ml) it was 62%; in assay [2] (JWH-018 2.5 ng/ml), 44%; in assay [2] (JWH-018 5 ng/ml), 31%; in assay [2] (JWH-018 10 ng/ml) it was 20%. The “% B/B0” value is 14% in assay [2] (JWH-018 20 ng/ml) and 9% in assay [2] (JWH-018 40 ng/ml).
With `CCCCn1cc(C(=O)c2cccc3ccccc23)c2ccccc21` [JWH-073], the “% Cross-reactivity” value in assay [1] (setting [3]) was 291.40%. The IC50 in assay [1] (setting [4]) was 0.93 ng/mL. In addition, the “% B/B0” value in assay [2] (setting [6]) came out at 3.56%.
For `O=C(O)CCCCn1cc(C(=O)c2cccc3ccccc23)c2ccccc21` [JWH-018 N-pentanoic acid metabolite] the same measures were 645.24%, 0.42 ng/mL and 4.51%.
As for `O=C(c1cccc2ccccc12)c1cn(CCCCCF)c2ccccc12` [AM-2201, 1-(5-Fluoropentyl)indol-3-yl (1-naphthyl) methanone], the IC50 in assay [1] (Table 4, Immunogen I) amounted to 0.02 ng/mL. Besides, the “% Cross-reactivity” value in assay [1] (setting [5]) turned out to be 11500.00%. The “% B/B0” value in assay [2] (setting [6]) is recorded as 3.72%.
In the case of `CCCCCn1cc(C(=O)c2ccc(Cl)c3ccccc23)c2ccccc21` [JWH-398], the “% Cross-reactivity” value in assay [1] (setting [3]) is recorded as <<6.78%. In addition, the IC50 in assay [1] (setting [4]) was >>40 ng/ml. In assay [2] (setting [6]), the “% B/B0” value stood at 60.31%.
As for `CCCCCn1cc(C(=O)c2cccc3ccccc23)c2c(O)cccc21` [4-OH JWH-018, JWH-018 4-hydroxyindole metabolite], the “% Cross-reactivity” value in assay [1] (setting [3]) stood at 10.62%. For the same compound, the IC50 in assay [1] (setting [4]) came out at 25.51 ng/mL. The “% B/B0” value in assay [2] (setting [6]) is on record as 46.39%.
As to `CCCCCn1cc(C(=O)c2cccc3ccccc23)c2ccc(O)cc21` [6-OH JWH-018, JWH-018 6-hydroxyindole metabolite], in assay [1], the “binding to the antibody produced” value is given as “able to bind”. Also, the “% Cross-reactivity” value in assay [1] (setting [3]) was found to be 132.84%. For the same compound, the IC50 in assay [1] (setting [4]) was 2.04 ng/mL. For the same compound, in assay [2] (setting [6]), the “% B/B0” value is 8.07%.
Regarding `CCCCCn1cc(C(=O)c2cccc3ccccc23)c2cc(O)ccc21` [5-OH JWH-018, JWH-018 5-hydroxyindole metabolite], the “binding to the antibody produced” value in assay [1] was “able to bind”. In addition, the “% Cross-reactivity” value in assay [1] (setting [3]) was 694.87%. In addition, the IC50 in assay [1] (setting [4]) came out at 0.39 ng/mL. The “% B/B0” value in assay [2] (setting [6]) is given as 11.79%.
Turning to `O=C(c1cccc2ccccc12)c1c[nH]c2ccccc12` [N-desalkyl JWH-018, 3-(1-naphthoyl)-1H-Indole], the “% Cross-reactivity” value in assay [1] (setting [3]) worked out at 70.57%. Besides, in assay [1] (setting [4]), the IC50 is 3.84 ng/mL. For the same compound, the “% B/B0” value in assay [2] (setting [6]) was found to be 15.63%.
With `O=C(c1cccc2ccccc12)c1cn(CCCCCO)c2ccccc12` [JWH-018 N-(5-hydroxypentyl) metabolite], the “% Cross-reactivity” value in assay [1] (setting [3]) is 1505.56%. Moreover, the IC50 in assay [1] (setting [4]) is 0.18 ng/mL. Further, the “% B/B0” value in assay [2] (setting [6]) was 3.50%.
`O=C(c1cccc2ccccc12)c1cn(CCN2CCOCC2)c2ccccc12` [JWH-200]: the “% Cross-reactivity” value in assay [1] (setting [3]) was 874.19%. In assay [1] (setting [4]), the IC50 worked out at 0.31 ng/mL. Moreover, the “% B/B0” value in assay [2] (setting [6]) was 3.51%.
